Measurements reported in ChEMBL document CHEMBL1201862, “PubChem BioAssay data set” (2004).
The source made the active and inactive calls.

How the values were obtained:
[1] = inhibitors of firefly luciferase expression or activity, dose response, H4 neuroglioma cells, luminescence (AID 1990); type: functional, cell-based
[2] = Luminescence Cell-Based Dose Response HTS to Identify Inhibitors of 5'UTR Stem-Loop Driven Prion Protein mRNA Translation in H4 Neuroglioblastoma Cells. [Related pubchem assays: 1827 (Project Summary), 1813 (Primary HTS)]; type: functional
[3] = inhibitors of SNCA 5'UTR-driven reporter translation, confirmation, H4 neuroglioma cells, luminescence (AID 1988); type: functional, cell-based
[4] = molecular target: T1, High affinity choline transporter 1 (Homo sapiens, UniProt Q9GZV3); test: CHT inhibitors, dose response, cell-based, 5-point CRC, membrane potential dye (AID 504840); type: functional
T1 sequence (Q9GZV3 whole entry): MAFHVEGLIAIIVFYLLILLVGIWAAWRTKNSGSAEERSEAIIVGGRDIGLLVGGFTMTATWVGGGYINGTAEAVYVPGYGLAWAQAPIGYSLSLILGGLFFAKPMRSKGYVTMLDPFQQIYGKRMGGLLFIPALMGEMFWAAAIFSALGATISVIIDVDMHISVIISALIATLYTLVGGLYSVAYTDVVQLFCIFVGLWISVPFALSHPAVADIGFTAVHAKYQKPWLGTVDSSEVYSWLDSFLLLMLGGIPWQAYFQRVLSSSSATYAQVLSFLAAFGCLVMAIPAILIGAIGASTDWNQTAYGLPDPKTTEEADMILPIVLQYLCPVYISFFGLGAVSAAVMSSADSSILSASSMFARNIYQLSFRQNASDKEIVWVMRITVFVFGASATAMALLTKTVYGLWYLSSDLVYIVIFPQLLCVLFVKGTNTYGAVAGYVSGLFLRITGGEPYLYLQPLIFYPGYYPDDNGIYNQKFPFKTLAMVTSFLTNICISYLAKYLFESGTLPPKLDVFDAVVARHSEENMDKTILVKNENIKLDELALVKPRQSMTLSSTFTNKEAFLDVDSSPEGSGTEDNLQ

Large T antigen = Large T antigen (Simian virus 40, UniProt P03070); type: functional, Betapolyomavirus macacae;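 note: Confirmatory-stage PubChem screen for compounds that inhibit SV40 T antigen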
Sequence of Large T antigen (P03070 whole entry): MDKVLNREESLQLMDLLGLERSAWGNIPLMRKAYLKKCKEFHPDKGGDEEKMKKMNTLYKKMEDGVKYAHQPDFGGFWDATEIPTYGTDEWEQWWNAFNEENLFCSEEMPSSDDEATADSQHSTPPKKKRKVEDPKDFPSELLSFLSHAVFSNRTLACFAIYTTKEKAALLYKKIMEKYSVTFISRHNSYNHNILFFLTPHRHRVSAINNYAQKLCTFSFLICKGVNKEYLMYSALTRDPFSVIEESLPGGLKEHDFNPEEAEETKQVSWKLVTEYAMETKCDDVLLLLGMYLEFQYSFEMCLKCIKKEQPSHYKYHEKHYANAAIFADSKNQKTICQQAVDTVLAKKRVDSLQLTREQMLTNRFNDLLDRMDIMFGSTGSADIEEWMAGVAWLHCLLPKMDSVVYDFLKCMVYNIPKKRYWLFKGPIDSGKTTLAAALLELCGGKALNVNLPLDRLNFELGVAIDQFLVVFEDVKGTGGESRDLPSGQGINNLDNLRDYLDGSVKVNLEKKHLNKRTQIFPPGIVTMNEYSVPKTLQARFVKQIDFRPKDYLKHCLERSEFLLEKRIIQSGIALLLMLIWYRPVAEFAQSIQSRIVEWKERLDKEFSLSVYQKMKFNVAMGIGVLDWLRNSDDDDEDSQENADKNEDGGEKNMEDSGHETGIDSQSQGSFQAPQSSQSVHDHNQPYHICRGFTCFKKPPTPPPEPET

[5] = molecular target: Luciferin 4-monooxygenase (Photinus pyralis, UniProt P08659); test: firefly luciferase enzyme inhibitors, dose response, biochemical, luminescence (AID 1891)
Sequence of Luciferin 4-monooxygenase (P08659 whole entry): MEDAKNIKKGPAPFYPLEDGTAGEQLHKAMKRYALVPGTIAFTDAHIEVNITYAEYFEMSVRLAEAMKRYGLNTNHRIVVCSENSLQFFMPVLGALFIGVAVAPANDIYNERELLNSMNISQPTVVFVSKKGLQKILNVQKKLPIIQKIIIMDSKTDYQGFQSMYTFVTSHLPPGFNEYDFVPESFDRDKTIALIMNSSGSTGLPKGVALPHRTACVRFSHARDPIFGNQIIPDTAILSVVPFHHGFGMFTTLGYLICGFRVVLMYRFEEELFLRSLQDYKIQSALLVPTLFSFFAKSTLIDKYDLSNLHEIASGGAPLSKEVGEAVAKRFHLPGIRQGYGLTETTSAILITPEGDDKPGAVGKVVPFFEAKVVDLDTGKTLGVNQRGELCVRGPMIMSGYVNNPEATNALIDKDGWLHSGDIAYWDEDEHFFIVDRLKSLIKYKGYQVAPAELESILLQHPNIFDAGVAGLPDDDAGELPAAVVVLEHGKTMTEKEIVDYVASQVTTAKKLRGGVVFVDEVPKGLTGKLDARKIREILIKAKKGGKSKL

[6] = Luminescence Cell-Based Dose Confirmation HTS to Identify Inhibitors of Platelet Dense Granule Release. [Related pubchem assays: 1663 (Primary HTS), 1678 (Summary of Project)]; type: functional
Genome polyprotein = Genome polyprotein (dengue virus type 2, UniProt P29990); test: Dengue-2 NS5 methyltransferase inhibitors, primary screen, biochemical, confirmation dose response (AID 588689); type: functional
Sequence of Genome polyprotein (P29990 2492-3391 limits assumed): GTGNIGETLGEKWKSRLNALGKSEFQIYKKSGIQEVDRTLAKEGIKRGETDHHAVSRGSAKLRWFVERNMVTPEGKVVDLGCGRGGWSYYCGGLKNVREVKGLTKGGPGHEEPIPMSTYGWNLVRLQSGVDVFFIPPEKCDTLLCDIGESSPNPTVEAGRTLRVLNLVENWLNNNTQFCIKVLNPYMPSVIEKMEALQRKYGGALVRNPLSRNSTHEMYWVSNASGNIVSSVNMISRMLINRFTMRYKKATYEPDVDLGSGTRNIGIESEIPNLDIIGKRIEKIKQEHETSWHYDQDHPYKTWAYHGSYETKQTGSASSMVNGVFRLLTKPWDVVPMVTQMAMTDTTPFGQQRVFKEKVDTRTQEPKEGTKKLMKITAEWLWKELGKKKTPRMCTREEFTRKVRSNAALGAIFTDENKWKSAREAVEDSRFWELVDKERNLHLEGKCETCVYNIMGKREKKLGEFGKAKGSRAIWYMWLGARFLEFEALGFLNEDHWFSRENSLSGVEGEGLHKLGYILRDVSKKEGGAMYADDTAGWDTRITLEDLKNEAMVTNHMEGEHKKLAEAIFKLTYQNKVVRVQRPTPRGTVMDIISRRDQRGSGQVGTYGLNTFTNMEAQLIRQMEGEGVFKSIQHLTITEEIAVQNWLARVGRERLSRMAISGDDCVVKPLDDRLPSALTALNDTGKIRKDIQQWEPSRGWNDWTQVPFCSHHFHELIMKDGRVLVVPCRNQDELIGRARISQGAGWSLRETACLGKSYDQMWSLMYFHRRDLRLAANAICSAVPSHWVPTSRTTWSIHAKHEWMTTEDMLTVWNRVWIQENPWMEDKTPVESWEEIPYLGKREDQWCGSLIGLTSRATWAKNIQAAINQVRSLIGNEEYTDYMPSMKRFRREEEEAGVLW

[7] = molecular target: T2, Polyadenylate-binding protein 1 (Homo sapiens, UniProt P11940); test: PABP1 MLLE–PAM2 interaction inhibitors, dose response, miRNA deadenylation inhibitor project, biochemical, fluorescence polarization, Cy5-PAM2 peptide, secondary (AID 602260); type: functional; details: read-out: IC50_Mean
T2 sequence (P11940 whole entry): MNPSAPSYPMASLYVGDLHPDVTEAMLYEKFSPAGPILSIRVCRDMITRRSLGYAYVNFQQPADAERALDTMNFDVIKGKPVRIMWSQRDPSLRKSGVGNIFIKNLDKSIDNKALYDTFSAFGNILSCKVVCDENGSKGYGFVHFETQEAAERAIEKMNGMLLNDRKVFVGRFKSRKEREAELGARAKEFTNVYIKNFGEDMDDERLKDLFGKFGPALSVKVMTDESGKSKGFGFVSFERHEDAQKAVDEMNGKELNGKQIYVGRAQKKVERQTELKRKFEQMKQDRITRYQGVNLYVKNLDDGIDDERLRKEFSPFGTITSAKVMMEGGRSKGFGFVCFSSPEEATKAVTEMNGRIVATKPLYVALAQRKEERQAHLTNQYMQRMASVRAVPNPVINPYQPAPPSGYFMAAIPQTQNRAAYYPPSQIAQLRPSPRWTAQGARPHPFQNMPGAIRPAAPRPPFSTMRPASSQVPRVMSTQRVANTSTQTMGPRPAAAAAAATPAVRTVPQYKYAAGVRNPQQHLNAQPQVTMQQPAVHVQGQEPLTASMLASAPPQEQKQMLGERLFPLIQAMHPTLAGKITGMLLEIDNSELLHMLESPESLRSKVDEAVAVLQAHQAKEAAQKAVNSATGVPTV

[8] = molecular target: T2, Polyadenylate-binding protein 1; test: PABP1 MLLE–PAM2 binding inhibitor potency, dose response, biochemical, fluorescence polarization, FITC-PAM2 peptide (AID 602259); type: functional; details: read-out: IC50_Mean
Nonstructural protein 1 = Nonstructural protein 1 (Influenza A virus, UniProt Q194T2); type: functional, Influenza A virus (A/California/07/2009(H1N1))
Sequence of Nonstructural protein 1 (Q194T2 whole entry): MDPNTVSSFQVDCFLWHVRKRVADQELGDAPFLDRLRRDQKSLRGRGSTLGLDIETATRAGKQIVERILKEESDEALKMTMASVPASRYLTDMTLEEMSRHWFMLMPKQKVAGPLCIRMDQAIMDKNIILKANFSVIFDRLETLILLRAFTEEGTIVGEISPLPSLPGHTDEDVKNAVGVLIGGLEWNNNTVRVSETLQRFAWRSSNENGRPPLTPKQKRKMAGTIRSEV

[9] = Shn3 3'UTR reporter inhibitors, dose response, cell-based, Clone20 osteoblasts, firefly luciferase, cherry-picked (AID 624132); type: functional;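 note: firefly luciferase luminescence from reporter carrying the Shn3 3'UTR in osteoblasts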
[10] = control 3'UTR Renilla luciferase suppression, dose response, counter-screen for Shn3 inhibitor project, cell-based, Clone20-Shn3RL, cherry-picked (AID 624133); type: functional
[11] = growth suppression of PTEN-null colon cells, dose response, cell-based, HCT116 PTEN knockout (AID 1047); type: functional;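 note: HCT116 colon tumor cells with PTEN knocked out; cells exposed to compound for 60 hours before readout; potency for loss of cell viability measured by luminescence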
[12] = growth suppression of beta-catenin-knockout colon cells, dose response, cell-based, HCT116, human colon tumor (AID 1045); type: functional;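 note: HCT116 colon tumor cells with beta catenin knocked out; cells exposed to compound for 60 hours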
[13] = inhibitors of HIV Env-driven cell fusion, dose response, cherry-pick (AID 652057); type: functional, cell-based
[14] = ZM109 Env clade C HIV-1 fusion inhibitors, dose response, HeLa effector, CEM target cells, luciferase, cherry-pick (AID 652058); type: functional, cell-based
[15] = inhibitors of clade B AD8 Env fusion, dose response, cell-based, cherry-pick (AID 652062); type: functional;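 note: luciferase signal from cell-cell fusion driven by HIV-1 clade B AD8 Env; potency is for inhibitors of fusion seen as a drop in luminescence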
[16] = molecular target: T3, Rac GTPase-activating protein 1 (Homo sapiens, UniProt Q9H0H5); test: MgcRacGAP GTPase-activating activity inhibitors, confirmation, biochemical, ADP Hunter fluorescence, primary and confirmatory (AID 624330); type: functional
T3 sequence (Q9H0H5 whole entry): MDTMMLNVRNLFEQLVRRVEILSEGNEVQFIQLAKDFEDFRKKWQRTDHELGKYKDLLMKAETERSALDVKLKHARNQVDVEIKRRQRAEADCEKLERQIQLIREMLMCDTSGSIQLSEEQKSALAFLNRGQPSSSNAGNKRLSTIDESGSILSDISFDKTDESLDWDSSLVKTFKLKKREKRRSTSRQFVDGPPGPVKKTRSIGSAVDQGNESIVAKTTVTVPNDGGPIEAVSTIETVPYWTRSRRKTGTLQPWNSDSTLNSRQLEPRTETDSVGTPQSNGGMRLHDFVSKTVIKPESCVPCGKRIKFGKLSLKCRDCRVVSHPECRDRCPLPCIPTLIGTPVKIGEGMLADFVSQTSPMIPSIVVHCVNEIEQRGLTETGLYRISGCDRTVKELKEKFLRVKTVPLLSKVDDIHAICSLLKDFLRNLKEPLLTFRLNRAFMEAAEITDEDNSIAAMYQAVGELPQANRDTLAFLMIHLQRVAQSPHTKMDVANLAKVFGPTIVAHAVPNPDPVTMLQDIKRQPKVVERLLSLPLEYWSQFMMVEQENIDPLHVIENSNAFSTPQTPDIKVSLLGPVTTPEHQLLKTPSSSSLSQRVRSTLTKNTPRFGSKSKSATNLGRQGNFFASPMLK

[17] = P. falciparum Dd2 growth inhibitors, dose response, SYBR Green, cherry-picked samples (AID 1159567); type: functional, cell-based

CC(=O)N1c2ccc(S(=O)(=O)NCC3CCC(C(=O)N4CC(C)CC(C)C4)CC3)cc2CC1C (stereo not drawn)
EC50 [1]: > 120 µM (not active)
EC50 [2]: > 120 µM (not active)
EC50 [3]: > 120 µM (not active)

Cc1c(C(=O)OC(C)C)sc(NC(=O)c2cccnc2)c1C#N
IC50 [4]: 1.82 µM (active)

COc1cc(CNc2ccc3c(c2)OCCO3)ccc1OCC(N)=O
IC50 (Large T antigen): 40 µM (active)

COc1ccc(CCNC(=O)c2ccc3c(c2)SC2=NS(=O)(=O)CCN23)cc1
EC50 [5]: > 112 µM (not active)
EC50 [6]: > 112 µM (not active)

CCCc1cc(NCC2CCCO2)n2c(nc3ccccc32)c1C#N (stereo not drawn)
IC50 [4]: 8.03 µM (active)

CC1CCCCC1NC(=O)Cn1nnc2ccccc2c1=O (stereo not drawn)
EC50 [1]: > 120 µM (not active)
EC50 [2]: > 120 µM (not active)
EC50 [3]: > 120 µM (not active)

Nc1nc2ncc(C(=O)c3cc(Cl)cc(Cl)c3O)cc2s1
IC50 (Genome polyprotein): > 100 µM (active)

Cc1cc(C)c2cc(C#N)c(N3CCCN(C(S)=NCCCN(C)C)CC3)nc2c1
EC50 [1]: > 60 µM (not active)
EC50 [2]: > 120 µM (not active)
EC50 [3]: 9.29 µM (active)

CCn1nc([N+](=O)[O-])c(C(C#N)c2nc3ccccc3n2C)c(Cl)c1=O (stereo not drawn)
IC50 (Genome polyprotein): > 100 µM (active)

CCc1ccc(C(=O)NC(=S)Nc2ccc(N3CCOCC3)cc2)cc1
IC50 [7]: > 66 µM (inactive)
IC50 [8]: > 66 µM (inactive)

O=C1NC(=O)C(=Cc2ccccc2OCCOc2ccc([N+](=O)[O-])cc2)C(=O)N1
IC50 (Large T antigen): 55.9 µM (active)

CCc1ccc(C(=O)COC(=O)CNC(=O)c2ccco2)cc1
EC50 [5]: > 112 µM (not active)
EC50 [6]: > 112 µM (not active)

O=C(Nc1ccc(O)cc1)c1ccc2c(c1)C(=O)N(Cc1ccco1)C2=O
IC50 (Large T antigen): 9.65 µM (active)

COc1ccc(SC[C@H](C)CN2CC[C@H](C(C)(C)C)CCC2=O)cc1
IC50 [7]: > 66 µM (inactive)
IC50 [8]: > 66 µM (inactive)

CN(C)c1ccc(NC(=O)COC(=O)CCC(=O)c2ccc(F)cc2)cc1
IC50 (Large T antigen): 19.2 µM (active)

COc1c(S(=O)(=O)NCCCN2CCOCC2)ccc(Cl)c1Cl
IC50 [7]: > 66 µM (inactive)
IC50 [8]: > 66 µM (inactive)

O=C(CCCn1nnc2ccccc2c1=O)N[C@H](C(=O)O)c1ccccc1
EC50 [5]: > 112 µM (not active)
EC50 [6]: > 112 µM (not active)

O=C(O)C1=CC[C@@H](c2ccc(Cl)cc2)N(S(=O)(=O)c2ccc(Cl)cc2)[C@H]1c1ccc(F)cc1
IC50 [4]: 13.2 µM (active)

COc1ccc(CNC(=O)c2cc(S(=O)(=O)N3CCCC3)cn2C)cc1
EC50 [5]: > 112 µM (not active)
EC50 [6]: > 112 µM (not active)

COc1ccc(NC(=O)c2cc([N+](=O)[O-])ccc2NC(=O)CNCc2ccccn2)c(OC)c1
IC50 (Nonstructural protein 1): 4.45 µM (active)

CCN1CCSc2ccc(C(=O)NCc3ccccc3C)cc21
EC50 [5]: > 112 µM (not active)
EC50 [6]: > 112 µM (not active)

COC(=O)C(O)(c1cn(C)c2ccccc12)C(F)(F)F (stereo not drawn)
EC50 [5]: > 112 µM (not active)
EC50 [6]: > 112 µM (not active)

c1ccc(CNc2nc3ccccc3n3cnnc23)cc1
EC50 [1]: > 120 µM (not active)
EC50 [2]: > 120 µM (not active)
EC50 [3]: 22.2 µM (active)

O=C(O)CN1C(=O)/C(=C\c2cc(Br)ccc2OCc2ccccc2F)SC1=S
IC50 (Genome polyprotein): 33.1 µM (active)

CC(C)c1ccccc1NC(=O)COC(=O)CCN1C(=O)/C(=C\C=C\c2ccccc2)SC1=S
EC50 [1]: 1.54 µM (active)
EC50 [2]: 27.8 µM (active)
EC50 [3]: 7.14 µM (active)

CCCCN1C2=NCCCN2c2cc(C)c(C)cc21
AC50 [9]: 803 nM (active)
AC50 [10]: 4.56 µM (active)

O=C1NC(=O)C(=Cc2coc3ccccc3c2=O)C(=O)N1
IC50 [4]: 15.1 µM (active)
IC50 (Genome polyprotein): > 100 µM (active)

COC(=O)c1ccc2c(=O)n(NC(=O)C(c3ccccc3)c3ccccc3)c(=S)[nH]c2c1
IC50 [7]: > 66 µM (inactive)
IC50 [8]: > 66 µM (inactive)

COc1cc(OC)cc(C(=O)NCC(=O)N2CCN(c3ccc(O)cc3)CC2)c1
IC50 (Large T antigen): 65.2 µM (active)

CC(C)(C)C(=O)/C(=C\c1ccc([N+](=O)[O-])cc1)n1cncn1
EC50 [5]: > 112 µM (not active)
EC50 [6]: 5.77 µM (active)
EC50 [11]: 1.58 µM (active)
EC50 [12]: 1.29 µM (active)

O=C(Nc1ccccc1)c1cccc(S(=O)(=O)NC2CCCC2)c1
IC50 [4]: 13.2 µM (active)

CCCCCCCCN1[C@@H](CC(=O)O)c2ccc(C(F)(F)F)cc2S1(=O)=O
IC50 [4]: 18.2 µM (active)

CCOC(=O)c1c(/N=C/c2cccc([N+](=O)[O-])c2O)sc(C)c1C
IC50 (Genome polyprotein): 77.1 µM (active)
IC50 [8]: 36.1 µM (inactive)

Fc1c(F)c(F)c(/C=N/NC(=S)Nc2cccnc2)c(F)c1F
IC50 [7]: > 66 µM (inactive)
IC50 [8]: > 66 µM (inactive)

O=C(C[C@@H]1CC[C@H](NC(=O)c2cccc(F)c2)[C@H](CO)O1)NCc1ccc(Oc2ccccc2)cc1
AC50 [13]: 28.5 µM (active)
AC50 [14]: 27 µM (active)
AC50 [15]: 15.2 µM (active)

COc1ccc(S(=O)(=O)N(C)C[C@@H]2Oc3ccc(NC(=O)Cn4cnnn4)cc3CC(=O)N([C@H](C)CO)C[C@@H]2C)cc1
AC50 [13]: 3.38 µM (active)
AC50 [14]: 2.33 µM (active)
AC50 [15]: 3.68 µM (active)

Cc1ccc(S(=O)(=O)Nc2ccc3c(c2)CC(=O)N([C@H](C)CO)C[C@H](C)[C@H](CN(C)S(=O)(=O)c2ccc(C)cc2)O3)cc1
AC50 [13]: 1.19 µM (active)
AC50 [15]: 4.36 µM (active)

COc1ccc2[nH]c3c(=O)n(CCCCC(=O)NCCN4CCCC4)c(=S)[nH]c3c2c1
IC50 (Large T antigen): 10.4 µM (active)

Cc1c(NC(=S)N/N=C/c2ccc([N+](=O)[O-])cc2O)c(=O)n(-c2ccccc2)n1C
IC50 (Nonstructural protein 1): 5.14 µM (active)

Oc1ccc(/C=N/NC(=S)NCC2CCCO2)cc1 (stereo not drawn)
IC50 (Large T antigen): 5.89 µM (active)
IC50 [16]: 30.8 µM (active)

CN(C)c1ccc2c(c1)[C@H]1C[C@H](CC(=O)NCc3ccc(Oc4ccccc4)cc3)O[C@H](CO)[C@H]1O2
AC50 [17]: 10.5 µM (active)

COc1ccc2c3c([nH]c2c1)[C@H](CO)N(Cc1ccccc1OC)CC31CCN(S(=O)(=O)c2ccccc2)CC1
AC50 [17]: 6.43 µM (active)

CCCNC(=O)Nc1ccc2c(c1)OC[C@H](C)N(Cc1ccc(-c3ccccn3)cc1)C[C@H](C)[C@H](OC)CN(C)C2=O
AC50 [17]: 5.09 µM (active)

O=C(Nc1ccc(F)cc1)N1CCCCN2[C@H](C1)[C@H](c1ccc(C#Cc3ccccc3)cc1)[C@@H]2CO
AC50 [17]: 5.46 µM (active)

CO[C@H]1CN(C)C(=O)c2cc(NC(=O)Cc3ccccc3)ccc2OC[C@H](C)N(C(=O)c2ccccc2F)C[C@H]1C
AC50 [17]: 4.94 µM (active)
